According to the supplement of paper PMC10307832:

Columns and labels:
Experiment in all cases: relative viability (nuclei count vs DMSO), 5 days (fraction); higher = more cells survive
Fedratinib + Pemetrexed = compound: Cc1cnc(Nc2ccc(OCCN3CCCC3)cc2)nc1Nc1cccc(S(=O)(=O)NC(C)(C)C)c1 [Fedratinib] + Nc1nc2[nH]cc(CCc3ccc(C(=O)N[C@@H](CCC(=O)O)C(=O)O)cc3)c2c(=O)[nH]1 [Pemetrexed] (partner 0.2 µM)
In short: (§1)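 Relative viability is defined as nuclei in treated wells over nuclei in vehicle wells. Duplicate plates were run and medians reported. Lung cancer cell lines in 1536-well plates were dosed by pin tool one day after seeding, with one drug or with a fixed anchor-drug dose plus five library-drug doses (not always all listed) in √10 steps, and nuclei were counted after 5 days.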

Fedratinib + Decitabine = compound: Cc1cnc(Nc2ccc(OCCN3CCCC3)cc2)nc1Nc1cccc(S(=O)(=O)NC(C)(C)C)c1 [Fedratinib] + Nc1ncn([C@H]2C[C@H](O)[C@@H](CO)O2)c(=O)n1 [Decitabine] (partner 2 µM)
In short: as §1

Fedratinib + Tozasertib = compound: Cc1cnc(Nc2ccc(OCCN3CCCC3)cc2)nc1Nc1cccc(S(=O)(=O)NC(C)(C)C)c1 [Fedratinib] + Cc1cc(Nc2cc(N3CCN(C)CC3)nc(Sc3ccc(NC(=O)C4CC4)cc3)n2)n[nH]1 [Tozasertib] (partner 0.1 µM)
In short: as §1

GW-2580 + Lapatinib = compound: COC1=CC=C(C=C1)COC2=C(C=C(C=C2)CC3=CN=C(N=C3N)N)OC [GW-2580] + CS(=O)(=O)CCNCc1ccc(-c2ccc3ncnc(Nc4ccc(OCc5cccc(F)c5)c(Cl)c4)c3c2)o1 [Lapatinib] (partner 2 µM)
In short: as §1

Fedratinib + OSI-027 = compound: Cc1cnc(Nc2ccc(OCCN3CCCC3)cc2)nc1Nc1cccc(S(=O)(=O)NC(C)(C)C)c1 [Fedratinib] + COc1cccc2cc(-c3nc([C@H]4CC[C@H](C(=O)O)CC4)n4ncnc(N)c34)[nH]c12 [OSI-027] (partner 0.5 µM)
In short: as §1

GW-2580 + Olaparib = compound: COC1=CC=C(C=C1)COC2=C(C=C(C=C2)CC3=CN=C(N=C3N)N)OC [GW-2580] + O=C(c1cc(Cc2n[nH]c(=O)c3ccccc23)ccc1F)N1CCN(C(=O)C2CC2)CC1 [Olaparib] (partner 8 µM)
In short: as §1

Row | Cell Line | relative viability (Fedratinib + Pemetrexed; first compound 0.1 µM) | relative viability (Fedratinib + Pemetrexed; first compound 0.3162 µM) | relative viability (Fedratinib + Pemetrexed; first compound 1 µM) | relative viability (Fedratinib + Decitabine; first compound 0.1 µM) | relative viability (Fedratinib + Decitabine; first compound 0.3162 µM) | relative viability (Fedratinib + Decitabine; first compound 1 µM) | relative viability (Fedratinib + Tozasertib; first compound 0.1 µM) | relative viability (Fedratinib + Tozasertib; first compound 0.3162 µM) | relative viability (Fedratinib + Tozasertib; first compound 1 µM) | relative viability (GW-2580 + Lapatinib; first compound 0.08 µM) | relative viability (GW-2580 + Lapatinib; first compound 0.8 µM) | relative viability (GW-2580 + Lapatinib; first compound 2.53 µM) | relative viability (GW-2580 + Lapatinib; first compound 8 µM) | relative viability (Fedratinib + OSI-027; first compound 0.1 µM) | relative viability (Fedratinib + OSI-027; first compound 0.3162 µM) | relative viability (Fedratinib + OSI-027; first compound 1 µM) | relative viability (GW-2580 + Olaparib; first compound 0.08 µM) | relative viability (GW-2580 + Olaparib; first compound 0.8 µM) | relative viability (GW-2580 + Olaparib; first compound 2.53 µM) | relative viability (GW-2580 + Olaparib; first compound 8 µM)
1 | NCI-H2085 | 0.88 | 1.06 | 0.805 | 0.53 | 0.563 | 0.518 | 0.478 | 0.827 | 0.764 | 0.849 | 0.988 | 0.626 | 0.713 | 0.586 | 0.855 | 0.711 | 0.741 | 0.784 | 0.84 | 0.757
2 | NCI-H2087 | 0.739 | 0.651 | 0.731 | 0.206 | 0.242 | 0.219 | 0.205 | 0.206 | 0.179 | 1.43 | 1.18 | 1.04 | 0.991 | 0.486 | 0.453 | 0.425 | 0.668 | 0.934 | 0.608 | 0.542
3 | NCI-H2126 | 0.592 | 0.657 | 0.626 | 0.532 | 0.596 | 0.605 | 0.429 | 0.818 | 0.781 | 0.767 | 0.835 | 0.679 | 0.833 | 0.757 | 0.736 | 0.704 | 1.02 | 0.942 | 0.793 | 0.851
4 | NCI-H2170 | 0.284 | 0.27 | 0.253 | 0.478 | 0.466 | 0.443 | 0.481 | 0.743 | 0.599 | 0.26 | 0.258 | 0.261 | 0.274 | 0.688 | 0.723 | 0.596 | 0.616 | 0.702 | 0.569 | 0.574
5 | NCI-H2347 | 0.335 | 0.419 | 0.433 | 0.637 | 0.631 | 0.647 | 0.368 | 0.602 | 0.483 | 1.02 | 1.03 | 0.805 | 0.936 | 0.292 | 0.428 | 0.497 | 0.538 | 0.616 | 0.54 | 0.595
6 | NCI-H2405 | 1.07 | 1.12 | 0.863 | 0.729 | 0.725 | 0.663 | 0.418 | 0.705 | 0.612 | 1.05 | 1.16 | 1.02 | 0.912 | 0.601 | 0.618 | 0.61 | 0.911 | 0.981 | 0.797 | 0.712
